The values that follow come from ChEMBL document CHEMBL1134323, “Structural basis for the binding affinity of xanthines with the DNA intercalator acridine orange” (J Med Chem, 2001).

The subject of the assay is Nucleic Acid.
Description: Binding affinity to DNA intercalator Acridine orange.
For `Cn1c(=O)c2[nH]cnc2n(C)c1=O`, the K ass was 157 M⁻¹.

In the case of `Cn1c2c(c(=O)n(C)c1=O)NCN2.N/C=C/N`, the K ass stood at 596 M⁻¹.

Compound `Cn1c(=O)c2c(n(C)c1=O)n(C)c(=O)n2C` displayed a K ass of 552 M⁻¹.

In turn, `Cn1c(=O)[nH]c2[nH]cnc2c1=O` registered a K ass of 79.2 M⁻¹.

Regarding `Cn1c(=O)[nH]c(=O)c2[nH]cnc21`, the K ass is 10 M⁻¹.

For the compound `Cc1ncnc2nc[nH]c12`, the K ass was found to be 0 M⁻¹.

In turn, `Clc1ncnc2[nH]cnc12` had a K ass of 0 M⁻¹.

For `c1nc2c[nH]cnc-2n1`, the K ass is 2 M⁻¹.

For `Cn1c(O)nc2[nH]c(=O)[nH]c(=O)c21`, the K ass amounted to 0 M⁻¹.

The compound `Oc1nc(O)c2nc(O)[nH]c2n1` came in with a K ass of 0 M⁻¹.

In the case of `CN1CNc2[nH]c(=O)n(C)c(=O)c21`, the K ass is 155 M⁻¹.

Compound `O=c1[nH]c(=O)c2nc[nH]c2[nH]1` showed a K ass of 0 M⁻¹.

As for `Nc1nc2[nH]cnc2c(=O)[nH]1`, the K ass came out at 0 M⁻¹.

For `Cn1c(=O)c2[nH]c(=O)[nH]c2n(C)c1=O`, the K ass turned out to be 38.5 M⁻¹.
